# US20100098782A1, “USE OF SODIUM ACID SULFATE AS A DISINFECTANT” (JOHNSONDIVERSEY, INC., priority 2008, published 2010)
# Several values for one entry are separate records, joined by “and”; a condition that tells them apart may be missing. Equal values may be shown once.
# Assays:
# [1] = tested on: organisms on freshly killed whole birds (3M Aerobic Count Petrifilm); assay: Whole bird carcass dip test, aerobic count; details: for Organisms/Bird: individual birds
# Method: In order to test the efficacy of the composition of the present invention for use in treating animal carcasses, freshly killed whole birds were dipped and completely immersed in 13 liters of treatment solution for 10 seconds. […] The growth medium was 3M Aerobic Count Petrifilm. The incubation was 2-3 days at 35° C. […] The same test was repeated using commercially available products, […]12, and Eden, comparing these with sodium acid sulfate and sodium acid sulfate in combination with citric acid.
# Salmonella enteriditis = assay: Antimicrobial effectiveness, suspension contact test; format: cell-based
# Method: In order to determine the antimicrobial effectiveness of the present invention, Salmonella enteriditis at 120,000,000 organisms per milliliter was contacted for 30 seconds, 1 minute, or 2 minutes, with 2,000 ppm SAS, or 4,000 ppm SAS at the indicated pH. The neutralizer was 0.2M Phosphate Buffer, pH 7.0, and the growth medium was 3M Aerobic Count Petrifilm using an incubation time of 4 days at 35° C.
# [2] = tested on: Escherichia coli, ATCC #11229; assay: Modification of the Germicidal and Detergent Sanitizing Action of Disinfectants (A.O.A.C.); format: cell-based; details: 4000 ppm, 25° C.
# Method: The germicidal effectiveness of 4000 ppm of sodium acid sulfate was tested at various levels of pH. The pH of the solutions was adjusted by addition of sodium hydroxide. The test method was A Modification of the Germicidal and Detergent Sanitizing Action of Disinfectants, A.O.A.C., 17th Edition 2000. The test organism was Escherichia coli, ATCC #11229 (560,000 org/ml), which was contacted with the sodium acid sulfate for 10 seconds and 30 seconds at 25° C. The recovery medium was Tryptone Glucose Extract Agar with Asolectin and Tween 80. Phosphate Buffer 0.2M was employed.
# [3] = 2000 ppm SAS, 10 seconds dip, pre 5 bird dip pH 1.60, post pH 1.78
# [4] = 2000 ppm SAS, repeated test (Table 5)
# [5] = 4000 ppm SAS, 10 seconds dip, pre 5 bird dip pH 1.56, post pH 1.75
# [6] = 2000 ppm, pH 1.5, 30 seconds contact
# [7] = 2000 ppm, pH 1.5, 2 minutes contact
# [8] = 2000 ppm, pH 1.75, 30 seconds contact
# [9] = 2000 ppm, pH 1.75, 1 minute contact
# [10] = 2000 ppm, pH 2.0, 30 seconds contact
# [11] = 2000 ppm, pH 2.0, 1 minute contact
# [12] = 2000 ppm, pH 2.0, 2 minutes contact
# [13] = 2000 ppm, pH 2.25, 30 seconds contact
# [14] = 2000 ppm, pH 2.25, 1 minute contact
# [15] = 2000 ppm, pH 2.25, 2 minutes contact
# [16] = 2000 ppm, pH 2.5, 30 seconds contact
# [17] = 2000 ppm, pH 2.5, 1 minute contact
# [18] = 2000 ppm, pH 2.5, 2 minutes contact
# [19] = 4000 ppm, pH 1.5, 30 seconds contact
# [20] = 4000 ppm, pH 1.75, 30 seconds contact
# [21] = 4000 ppm, pH 2.0, 30 seconds contact
# [22] = 4000 ppm, pH 2.25, 30 seconds contact
# [23] = 4000 ppm, pH 2.25, 1 minute contact
# [24] = 4000 ppm, pH 2.25, 2 minutes contact
# [25] = 4000 ppm, pH 2.5, 30 seconds contact
# [26] = 4000 ppm, pH 2.5, 1 minute contact
# [27] = 4000 ppm, pH 2.5, 2 minutes contact
structure (smiles),measurement,setting,value
"O=S(=O)([O-])O.[Na+] [SAS, sodium acid sulfate]",Average Organisms/Bird,[1]; [3],"576,000 Organisms/Bird"
same,Organisms/Bird,[1]; [3],"584,000 Organisms/Bird and 536,000 Organisms/Bird and 660,000 Organisms/Bird and 520,000 Organisms/Bird and 580,000 Organisms/Bird"
same,% Reduction,"[1]; 2000 ppm SAS, 10 seconds dip, pre 5 bird dip pH 1.60, post pH 1.78, vs no-treatment control",75.0%
same,Average Organisms/Bird,[1]; [4],"246,400 Organisms/Bird"
same,Organisms/Bird,[1]; [4],"556,000 Organisms/Bird and 128,000 Organisms/Bird and 264,000 Organisms/Bird and 88,000 Organisms/Bird and 196,000 Organisms/Bird"
same,% Reduction,"[1]; 2000 ppm SAS, repeated test (Table 5), vs wash control",88.7%
same,Average Organisms/Bird,[1]; [5],"618,400 Organisms/Bird"
same,Organisms/Bird,[1]; [5],"396,000 Organisms/Bird and 528,000 Organisms/Bird and 392,000 Organisms/Bird and 476,000 Organisms/Bird and 1,300,000 Organisms/Bird"
same,% Reduction,"[1]; 4000 ppm SAS, 10 seconds dip, pre 5 bird dip pH 1.56, post pH 1.75, vs no-treatment control",73.2%
same,performance in carcass dip (in words),[1]; both 2000 ppm and 4000 ppm,perform well
same,% Reduction,Salmonella enteriditis; [6],90.250% and 85.250%
same,Survivors,Salmonella enteriditis; [6],"11,700,000 org/ml and 17,700,000 org/ml"
same,% Reduction,"Salmonella enteriditis; 2000 ppm, pH 1.5, 1 minute contact",99.962% and 99.983%
same,% Reduction,Salmonella enteriditis; [7],>99.999%
same,Survivors,Salmonella enteriditis; [7],10 org/ml and 20 org/ml
same,% Reduction,Salmonella enteriditis; [8],<79.167%
same,Survivors,Salmonella enteriditis; [8],">25,000,000 org/ml"
same,% Reduction,Salmonella enteriditis; [9],<97.917%
same,Survivors,Salmonella enteriditis; [9],">25,000,000 org/ml"
same,% Reduction,"Salmonella enteriditis; 2000 ppm, pH 1.75, 2 minutes contact",98.192% and 98.817%
same,% Reduction,Salmonella enteriditis; [10],<79.167%
same,Survivors,Salmonella enteriditis; [10],">25,000,000 org/ml"
same,% Reduction,Salmonella enteriditis; [11],<97.917%
same,Survivors,Salmonella enteriditis; [11],">25,000,000 org/ml"
same,% Reduction,Salmonella enteriditis; [12],<97.917%
same,Survivors,Salmonella enteriditis; [12],">25,000,000 org/ml"
same,% Reduction,Salmonella enteriditis; [13],<79.167%
same,Survivors,Salmonella enteriditis; [13],">25,000,000 org/ml"
same,% Reduction,Salmonella enteriditis; [14],<97.917%
same,Survivors,Salmonella enteriditis; [14],">25,000,000 org/ml"
same,% Reduction,Salmonella enteriditis; [15],<97.917%
same,Survivors,Salmonella enteriditis; [15],">25,000,000 org/ml"
same,% Reduction,Salmonella enteriditis; [16],<79.167%
same,Survivors,Salmonella enteriditis; [16],">25,000,000 org/ml"
same,% Reduction,Salmonella enteriditis; [17],<97.917%
same,Survivors,Salmonella enteriditis; [17],">25,000,000 org/ml"
same,% Reduction,Salmonella enteriditis; [18],<97.917%
same,Survivors,Salmonella enteriditis; [18],">25,000,000 org/ml"
same,% Reduction,Salmonella enteriditis; [19],96.167% and 92.833%
same,Survivors,Salmonella enteriditis; [19],"4,600,000 org/ml and 8,600,000 org/ml"
same,% Reduction,"Salmonella enteriditis; 4000 ppm, pH 1.5, 1 minute contact",99.994% and 99.976%
same,% Reduction,"Salmonella enteriditis; 4000 ppm, pH 1.5, 2 minutes contact",>99.999% and 99.997%
same,% Reduction,Salmonella enteriditis; [20],94.250% and 92.917%
same,Survivors,Salmonella enteriditis; [20],"6,900,000 org/ml and 8,500,000 org/ml"
same,% Reduction,"Salmonella enteriditis; 4000 ppm, pH 1.75, 1 minute contact",96.667% and 98.417%
same,% Reduction,"Salmonella enteriditis; 4000 ppm, pH 1.75, 2 minutes contact",98.933% and 98.833%
same,% Reduction,Salmonella enteriditis; [21],83.250% and 84.500%
same,Survivors,Salmonella enteriditis; [21],"20,100,000 org/ml and 18,600,000 org/ml"
same,% Reduction,"Salmonella enteriditis; 4000 ppm, pH 2.0, 1 minute contact",94.583% and 97.833%
same,% Reduction,"Salmonella enteriditis; 4000 ppm, pH 2.0, 2 minutes contact",96.167% and 91.417%
same,% Reduction,Salmonella enteriditis; [22],<79.167%
same,Survivors,Salmonella enteriditis; [22],">25,000,000 org/ml"
same,% Reduction,Salmonella enteriditis; [23],<79.167%
same,Survivors,Salmonella enteriditis; [23],">25,000,000 org/ml"
same,% Reduction,Salmonella enteriditis; [24],<79.167%
same,Survivors,Salmonella enteriditis; [24],">25,000,000 org/ml"
same,% Reduction,Salmonella enteriditis; [25],<79.167%
same,Survivors,Salmonella enteriditis; [25],">25,000,000 org/ml"
same,% Reduction,Salmonella enteriditis; [26],<79.167%
same,Survivors,Salmonella enteriditis; [26],">25,000,000 org/ml"
same,% Reduction,Salmonella enteriditis; [27],<79.167%
same,Survivors,Salmonella enteriditis; [27],">25,000,000 org/ml"
same,antimicrobial activity (in words),"Salmonella enteriditis; at less than pH 2.5 and, particularly less than 2.0",greatly enhanced
same,% Reduction,"[2]; pH 1.49, 10 seconds contact",92.321%
same,Survivors,"[2]; pH 1.49, 10 seconds contact","43,000,000 org/ml"
same,% Reduction,"[2]; pH 1.49, 30 seconds contact",92.804%
same,Survivors,"[2]; pH 1.49, 30 seconds contact","40,300,000 org/ml"
same,% Reduction,"[2]; pH 1.59, 10 seconds contact",88.696%
same,Survivors,"[2]; pH 1.59, 10 seconds contact","63,300,000 org/ml"
same,% Reduction,"[2]; pH 1.59, 30 seconds contact",89.732%
same,Survivors,"[2]; pH 1.59, 30 seconds contact","57,500,000 org/ml"
same,% Reduction,"[2]; pH 1.70, 10 seconds contact",90.750%
same,Survivors,"[2]; pH 1.70, 10 seconds contact","51,800,000 org/ml"
same,% Reduction,"[2]; pH 1.70, 30 seconds contact",91.785%
same,Survivors,"[2]; pH 1.70, 30 seconds contact","46,000,000 org/ml"
same,% Reduction,"[2]; pH 1.79, 10 seconds contact",92.321%
same,Survivors,"[2]; pH 1.79, 10 seconds contact","43,000,000 org/ml"
same,% Reduction,"[2]; pH 1.79, 30 seconds contact",93.839%
same,Survivors,"[2]; pH 1.79, 30 seconds contact","34,500,000 org/ml"
same,% Reduction,"[2]; pH 1.89, 10 seconds contact",92.804%
same,Survivors,"[2]; pH 1.89, 10 seconds contact","40,300,000 org/ml"
same,% Reduction,"[2]; pH 1.89, 30 seconds contact",94.375%
same,Survivors,"[2]; pH 1.89, 30 seconds contact","31,500,000 org/ml"
same,% Reduction,"[2]; pH 1.99, 10 seconds contact",68.750%
same,Survivors,"[2]; pH 1.99, 10 seconds contact","175,000,000 org/ml"
same,% Reduction,"[2]; pH 1.99, 30 seconds contact",81.785%
same,Survivors,"[2]; pH 1.99, 30 seconds contact","102,000,000 org/ml"
same,% Reduction,"[2]; pH 2.11, 10 seconds contact",81.607%
same,Survivors,"[2]; pH 2.11, 10 seconds contact","103,000,000 org/ml"
same,% Reduction,"[2]; pH 2.11, 30 seconds contact",82.857%
same,Survivors,"[2]; pH 2.11, 30 seconds contact","96,000,000 org/ml"
same,% Reduction,"[2]; pH 2.18, 10 seconds contact",79.464%
same,Survivors,"[2]; pH 2.18, 10 seconds contact","115,000,000 org/ml"
same,% Reduction,"[2]; pH 2.18, 30 seconds contact",98.089%
same,Survivors,"[2]; pH 2.18, 30 seconds contact","107,000,000 org/ml"
same,% Reduction,"[2]; pH 2.29, 10 seconds contact",81.250%
same,Survivors,"[2]; pH 2.29, 10 seconds contact","105,000,000 org/ml"
same,% Reduction,"[2]; pH 2.29, 30 seconds contact",86.250%
same,Survivors,"[2]; pH 2.29, 30 seconds contact","77,000,000 org/ml"
same,% Reduction,"[2]; pH 2.39, 10 seconds contact",76.250%
same,Survivors,"[2]; pH 2.39, 10 seconds contact","133,000,000 org/ml"
same,% Reduction,"[2]; pH 2.39, 30 seconds contact",77.142%
same,Survivors,"[2]; pH 2.39, 30 seconds contact","128,000,000 org/ml"
same,% Reduction,"[2]; pH 2.49, 10 seconds contact",71.607%
same,Survivors,"[2]; pH 2.49, 10 seconds contact","159,000,000 org/ml"
same,% Reduction,"[2]; pH 2.49, 30 seconds contact",72.142%
same,Survivors,"[2]; pH 2.49, 30 seconds contact","156,000,000 org/ml"
